The term inhibition in vivo denotes the change of the read-out against control, counted positive when it falls.

The test system of series [1] is Mus musculus. As to the kind of experiment: Toxicity in Mus musculus Swiss albino (mouse) assessed as mortality at 100 mg/kg, ip. It is filed as organism-based. As to conditions: in vivo. Also noted: dose 100 mg/kg, route intraperitoneal.
Series [2] concerns Mus musculus. As to the kind of experiment: Neurotoxicity in Mus musculus Swiss albino (mouse) assessed as effect on vertical locomotory activity at 100 mg/kg, ip. Particulars: in vivo. The series is classed as toxicity, organism-based. Also noted: dose 100 mg/kg, route intraperitoneal.
The test system of series [3] is Mus musculus. The series can be described thus: Neurotoxicity in Mus musculus Swiss albino (mouse) assessed as falling latency at 100 mg/kg, ip by Rota-Rod test. Particulars: in vivo. The series is classed as toxicity, organism-based. Also noted: dose 100 mg/kg, route intraperitoneal. Background: Falling from the rotarod earlier than controls is read as motor impairment.

The test system of series [4] is Mus musculus. As to the kind of experiment: Analgesic activity in Mus musculus Swiss albino (mouse) assessed as inhibition of acetic acid-induced writhing at 100 mg/kg, ip measured after 30 min relative to control. Particulars: 0.5 h, route intraperitoneal. The series is classed as functional. Background: Writhing tests count abdominal constrictions after an irritant is injected.

In series [5] the test system is Mus musculus. As to the kind of experiment: Neurotoxicity in Mus musculus Swiss albino (mouse) assessed as effect on horizontal locomotory activity at 100 mg/kg, ip. It is filed as toxicity, organism-based. Particulars: in vivo. Details: dose 100 mg/kg, route intraperitoneal.
Series [6] concerns Mus musculus. As to the kind of experiment: Analgesic activity in Mus musculus Swiss albino (mouse) assessed as paw licking and jumping latency at 100 mg/kg, ip measured after 30 min by hot plate test. It is filed as functional. As to conditions: route intraperitoneal. (In general: Hot-plate and tail-flick tests time the reaction to a heat stimulus.)
Series [7] deals with Mus musculus. As to the kind of experiment: Analgesic activity in Mus musculus Swiss albino (mouse) at 100 mg/kg, ip measured after 30 min by tail clip test. The series is classed as functional. As to conditions: route intraperitoneal.

With `O=C(CSc1ccccc1C(=O)O)Nc1ccccc1`, the Activity result with Mus musculus [1] was “Non-toxic”; in the series with Mus musculus [2], “Non-toxic”; in the series with Mus musculus [3], “Non-toxic”; in the series on Mus musculus [5], “Non-toxic”; with Mus musculus [6], 79.98%. The inhibition in vivo at 100 mg/kg in the series with Mus musculus [4] was found to be 54.8%. This compound also registered an MPE in the series on Mus musculus [7] of 52.1%.
As for `O=C(CSc1ccccc1C(=O)O)Nc1ccc(Cl)cc1`, the Activity entry with Mus musculus [1] was “Non-toxic”; in the series with Mus musculus [2], “Non-toxic”; in the series with Mus musculus [3] it was “Non-toxic”; with Mus musculus [5], “Non-toxic”; in the series on Mus musculus [6], 65.73%. For the same compound, in the series on Mus musculus [4], the inhibition in vivo at 100 mg/kg turned out to be 49.7%. In the series with Mus musculus [7], this compound gave an MPE of 43.94%.
For the compound `O=C(CSc1ccccc1C(=O)O)Nc1ccc(Br)cc1`, the Activity entry was “Non-toxic” in the series with Mus musculus [1]; “Non-toxic” in the series on Mus musculus [2]; “Non-toxic” in the series on Mus musculus [3]; “Non-toxic” with Mus musculus [5]; 8.48% in the series on Mus musculus [6]. The inhibition in vivo at 100 mg/kg in the series with Mus musculus [4] amounted to 9.04%. The MPE with Mus musculus [7] came to 13.71%.
Regarding `Cc1ccc(NC(=O)CSc2ccccc2C(=O)O)cc1`, the Activity result in the series on Mus musculus [1] was “Non-toxic”; in the series with Mus musculus [2], “Non-toxic”; in the series with Mus musculus [3] it was “Non-toxic”; with Mus musculus [5], “Non-toxic”; in the series with Mus musculus [6], 89.37%. Also, the inhibition in vivo at 100 mg/kg in the series on Mus musculus [4] amounted to 76.3%. In the series with Mus musculus [7], this compound came in with an MPE of 72.31%.
As to `COc1ccc(NC(=O)CSc2ccccc2C(=O)O)cc1`, the Activity entry in the series with Mus musculus [1] was “Non-toxic”; in the series on Mus musculus [2], “Non-toxic”; in the series with Mus musculus [3], “Non-toxic”; with Mus musculus [5], “Non-toxic”; with Mus musculus [6], 35.12%. In the series with Mus musculus [4], the inhibition in vivo at 100 mg/kg worked out at 27.7%. The same compound yielded an MPE in the series on Mus musculus [7] of 25.01%.
As for `O=C(CSc1ccccc1C(=O)O)Nc1ccc(C(=O)O)cc1`, the Activity result is reported as “Non-toxic” in the series with Mus musculus [1]; “Non-toxic” in the series with Mus musculus [2]; “Non-toxic” in the series on Mus musculus [3]; “Non-toxic” in the series on Mus musculus [5]; 18.07% with Mus musculus [6]. Further, the inhibition in vivo at 100 mg/kg in the series on Mus musculus [4] came out at 20.3%. Also, the MPE in the series with Mus musculus [7] is given as 17.05%.
For the compound `CC(=O)Nc1ccc(O)cc1` [ACETAMINOPHEN], the Activity entry with Mus musculus [1] is listed as “Non-toxic”; in the series with Mus musculus [2] it was “Non-toxic”; in the series on Mus musculus [3] it was “Non-toxic”; in the series with Mus musculus [5], “Non-toxic”; with Mus musculus [6] it was 51.61%. In the series on Mus musculus [4], the inhibition in vivo at 100 mg/kg was found to be 29.4%.
Consider `O=C(O)c1ccccc1S` [THIOSALICYLIC ACID], for which the Activity entry in the series on Mus musculus [1] was “Non-toxic”; with Mus musculus [2], “Non-toxic”; in the series with Mus musculus [3], “Non-toxic”; in the series with Mus musculus [5], “Non-toxic”; in the series on Mus musculus [6], 62.49%. For the same compound, the inhibition in vivo at 100 mg/kg in the series with Mus musculus [4] amounted to 33.9%. Further, the MPE in the series on Mus musculus [7] is given as 40.37%.

The record behind these values is ChEMBL document CHEMBL3045065, “Synthesis and analgesic effects of 2-(2-carboxyphenylsulfanyl)-N-(4-substitutedphenyl)acetamide derivatives” (Med Chem Res, 2011).
